# Patent US11472808B2, “Substituted pyrrolo[1,2-c]pyrimidines as hepatitis B antiviral agents” (Enanta Pharmaceuticals, Inc., priority 2019, dated 2022)
# System: HBV
# Experiment: HepAD38 anti-HBV assay: reduction of viral product accumulation (virion DNA qPCR, HBsAg/HBeAg ELISA)
# Format: cell-based
# Settings: Hepatitis B virus, 120 h; HepAD38 cells; concentration reducing viral product accumulation by 50% relative to no drug controls; harvest five days after compound addition; read-out: HepAD38 EC50
# Procedure, shortened: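 EC50 values reflect 50% reduction, relative to untreated controls, in virion DNA (qPCR) or HBsAg/HBeAg (ELISA) from lysates or supernatants. Washed HepAD38 cells without tetracycline were exposed to compound for 5 days. In the 8-day variant, medium and compound were renewed on days 2 and 5.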
row,Compound,EC50 [nM]
1,O=C(O)C1CCN(CCS(=O)(=O)N[C@H]2CC3=C(c4ccn(C(F)F)n4)[C@H](c4ccc(F)cc4Cl)N=C(c4nccs4)N3C2)CC1 [Example 59],100 to 400
2,O=C(O)Cc1cccc(S(=O)(=O)N[C@H]2CC3=C(c4ccn(C(F)F)n4)[C@H](c4ccc(F)cc4Cl)N=C(c4nccs4)N3C2)c1 [Example 33],100 to 400
3,O=C(O)CS(=O)(=O)N[C@H]1CC2=C(c3ccn(C(F)F)n3)[C@H](c3ccc(F)cc3Cl)N=C(c3nccs3)N2C1 [Example 18],> 400
4,O[C@@]1(Cn2cccn2)CC2=C(c3ccn(C(F)F)n3)[C@H](c3ccc(F)cc3Cl)N=C(c3nccs3)N2C1 [Example 121],> 400
5,COC(=O)[C@H]1C[C@@H](S(=O)(=O)N[C@H]2CC3=C(c4ccn(C(F)F)n4)[C@H](c4ccc(F)cc4Cl)N=C(c4nccs4)N3C2)C1 [Example 15],100 to 400
6,C=CS(=O)(=O)N([C@H]1CC2=C(c3ccn(C(F)F)n3)[C@H](c3ccc(F)cc3Cl)N=C(c3nccs3)N2C1)S(=O)(=O)C=C [Example 51],> 400
7,O=S(=O)(N[C@H]1CC2=C(c3ccn(C(F)F)n3)[C@H](c3ccc(F)cc3Cl)N=C(c3nccs3)N2C1)[C@H]1C[C@H]1c1ccccn1 [Example 391],100 to 400
8,O=S(=O)(Nc1ccccc1)N[C@H]1CC2=C(c3ccn(C(F)F)n3)[C@H](c3ccc(F)cc3Cl)N=C(c3nccs3)N2C1 [Example 82],100 to 400
9,ONC[C@]1(O)CC2=C(c3ccn(C(F)F)n3)[C@H](c3ccc(F)cc3Cl)N=C(c3nccs3)N2C1 [Example 123],> 400
10,CC(C)(C)OC(=O)N1CCN(C(=O)N[C@H]2CC3=C(c4ccn(C(F)F)n4)[C@H](c4ccc(F)cc4Cl)N=C(c4nccs4)N3C2)CC1 [Example 220],> 400
11,O=C(O)CC(NS(=O)(=O)N[C@H]1CC2=C(c3ccn(C(F)F)n3)[C@H](c3ccc(F)cc3Cl)N=C(c3nccs3)N2C1)c1ccccn1 (some centres unmarked) [Example 356],100 to 400
12,O[C@]1(Cn2cccn2)CC2=C(c3ccn(C(F)F)n3)[C@H](c3ccc(F)cc3Cl)N=C(c3nccs3)N2C1 [Example 120],> 400
13,O=C(NC[C@@]1(F)CC2=C(c3ccn(C(F)F)n3)[C@H](c3ccc(F)cc3Cl)N=C(c3nccs3)N2C1)OCc1ccccc1 [Example 187],> 400
14,O=C(N[C@H]1CC2=C(c3ccn(C(F)F)n3)[C@H](c3ccc(F)cc3Cl)N=C(c3nccs3)N2C1)C1(c2ccccn2)CC1 [Example 322],100 to 400
15,COC(=O)NC[C@]1(F)CC2=C(c3ccn(C(F)F)n3)[C@H](c3ccc(F)cc3Cl)N=C(c3nccs3)N2C1 [Example 185],100 to 400
16,O=S(=O)(N[C@H]1CC2=C(c3ccn(C(F)F)n3)[C@H](c3ccc(F)cc3Cl)N=C(c3nccs3)N2C1)c1ccc2ncccc2c1 [Example 397],< 100
17,O=C(N[C@H]1CC2=C(c3ccn(C(F)F)n3)[C@H](c3ccc(F)cc3Cl)N=C(c3nccs3)N2C1)N1CCCC1 [Example 209],< 100
18,CSC[C@@]1(O)CC2=C(c3ccn(C(F)F)n3)[C@H](c3ccc(F)cc3Cl)N=C(c3nccs3)N2C1 [Example 142],> 400
19,CS(=O)(=O)Nc1ccc(NS(=O)(=O)N[C@H]2CC3=C(c4ccn(C(F)F)n4)[C@H](c4ccc(F)cc4Cl)N=C(c4nccs4)N3C2)cc1 [Example 349],< 100
20,C[C@@H]1CN(S(=O)(=O)N[C@H]2CC3=C(c4ccn(C(F)F)n4)[C@H](c4ccc(F)cc4Cl)N=C(c4nccs4)N3C2)C[C@@H]1C [Example 299],< 100
21,O=C1NCC2(CCN(S(=O)(=O)N[C@H]3CC4=C(c5ccn(C(F)F)n5)[C@H](c5ccc(F)cc5Cl)N=C(c5nccs5)N4C3)CC2)O1 [Example 163],< 100
22,O=C(N[C@H]1CC2=C(c3ccn(C(F)F)n3)[C@H](c3ccc(F)cc3Cl)N=C(c3nccs3)N2C1)C(=O)c1ccccc1 [Example 419],100 to 400
23,O=C(O)c1ccc(NC(=O)N2CCN([C@H]3CC4=C(c5ccn(C(F)F)n5)[C@H](c5ccc(F)cc5Cl)N=C(c5nccs5)N4C3)CC2)cc1 [Example 47],> 400
